In patent US7803822B2, “Triazole derivative and use thereof” (Takeda Pharmaceutical Company Limited, priority 2005, dated 2010):

Key:
[1] = tested on: platelet rich plasma (PRP); experiment: Platelet aggregation test (platelet rich plasma), thrombin-induced; type: cell-based; conditions: human PRP, thrombin at minimum concentration causing maximum aggregation; test compound concentration not given
Protocol: Platelet Aggregation Test (Platelet Rich Plasma)
Using a syringe filled in advance with 3.8% sodium citrate solution (Chitral: Yamanouchi Pharmaceutical Co., Ltd.), its 9-fold volume of venous blood was taken from healthy volunteers. After blood sampling, the blood was centrifuged at room temperature, 2700 G for […] and 15 min to give platelet rich plasma (PRP) and platelet poor plasma (PPP), respectively. PRP was applied to an automated blood cell counter (Sysmex) to adjust the platelet count to 300,000/μL, and fibrin polymerization inhibitory peptide was added thereto to a final concentration of 4 mM. The platelet aggregation rate was measured using an aggregometer (Kowa). To be specific, 200 μL of PRP was placed in a cuvette with a microstirrer, preheated at 37° C. for 2 min, and a test compound solution (20 μL) was added. The mixture was further preheated at 37° C. for 2 min with stirring (1000 rpm), thrombin (20 μL) was added, and changes in the transmittance caused by platelet aggregation were recorded over time. Thrombin was used at a minimum concentration causing maximum aggregation, and the aggregation suppressive rate (%) was calculated from the ratio of the maximum aggregation rate with addition of test compound to the maximum aggregation rate of control group. The test compound was dissolved in dimethyl sulfoxide and diluted with saline before use.

[2] = target: T1, human PAR-1 (Homo sapiens, UniProt P25116); experiment: GTPγS binding assay with membrane fraction of human PAR-1-expressing cells; type: biochemical; conditions: [35S]-GTPγS binding to human PAR-1-expressing cell membrane fraction; agonist peptide SFLLRN-NH2
T1 construct: expressed in transfected cells; host or cells: CHO-K1 (transformant flag/trn/CHO-K1)
T1 sequence (P25116 22-425): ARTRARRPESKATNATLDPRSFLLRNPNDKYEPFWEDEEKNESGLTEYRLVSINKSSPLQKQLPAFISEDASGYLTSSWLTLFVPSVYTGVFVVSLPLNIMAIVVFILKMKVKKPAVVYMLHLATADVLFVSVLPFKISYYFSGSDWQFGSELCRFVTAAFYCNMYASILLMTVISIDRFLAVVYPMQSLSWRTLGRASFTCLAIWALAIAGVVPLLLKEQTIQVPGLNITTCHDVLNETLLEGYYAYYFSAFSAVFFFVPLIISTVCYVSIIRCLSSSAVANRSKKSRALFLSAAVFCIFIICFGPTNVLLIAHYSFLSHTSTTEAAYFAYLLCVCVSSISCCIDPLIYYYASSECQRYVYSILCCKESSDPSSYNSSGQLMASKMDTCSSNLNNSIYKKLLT
Protocol: The preparation method of the membrane fraction used for the GTPγS binding assay is shown below.
Human PAR-1-expressing cells were inoculated to an F500 flask at 1.8×10^5 cells/flask, and the cells were cultured for 2 days. The cells were detached with saline containing 0.02% EDTA. The cells were centrifuged (2000 rpm, 10 min), cell pellets were re-suspended in 12 ml of homogenate buffer (10 mM NaHCO3, 1 mM EDTA, protease inhibitor cocktail, pH 7.4), and homogenized by Polytron™. The residual cells were removed by centrifugation (2000 rpm, 10 min), and the supernatant was ultracentrifuged (Beckman Instruments 70 Ti type rotor, 30000 rpm, 1 hr) to give a membrane fraction of human PAR-1-expressing cells in a sediment, which was preserved at −80° C. and dissolved before use for an assay.
The measurement method of the GTPγS binding activity is shown below.
Then, the reaction mixture was filtered through a GF/C filter, washed 4 times with 300 μL of saline, and the radioactivity of the filter was measured by a TopCount scintillation counter.
The concentration (IC50 value) of the test compound necessary for inhibiting the GTPγS binding activity by 50% was calculated using PRISM3.0 (PraphPad software).

Compound | aggregation suppressive rate (%) [1] | IC50 [2]
CCCc1c(C(=O)NCc2ccc(OC)cc2)nnn1-c1ccc(NC(C)=O)cc1 [Compound 2] | 39% | 2.1 µM
CCCc1c(C(=O)NC2CC2)nnn1-c1ccc(NC(C)=O)cc1 [Compound 1, 1-[4-(acetylamino)phenyl]-N-cyclopropyl-5-propyl-1H-1,2,3-triazole-4-carboxamide, reference compound] | 66% | 1.9 µM
CCCc1c(C(=O)NCCOc2ccccc2)nnn1-c1ccc(NC(C)=O)cc1 [Compound 3] | – | 1.9 µM
